In patent publication US20180344725A1, “QUINOLONE CHALCONE COMPOUNDS AND USES THEREOF” (priority 2015, published 2018):

What was measured:
MDA-MB231TaxR = experiment: SRB-based cytotoxicity assay, single and combination with paclitaxel; assay type: cell-based; settings: for killing of MDA-MB231TaxR compared with parental MDA-MB231: TaxR selected in 100.0 nM paclitaxel
Experimental: All of the cell lines used were purchased from ATCC and cultured in RPMI-1640 supplemented with 10% fetal bovine serum and antibiotics (100 units penicillin/100 μg/ml streptomycin), unless stated otherwise. 1845B5 and MCF-10A non-cancer breast cell lines were cultured in DME/F12 medium supplemented with 10% fetal bovine serum, antibiotics and growth factors. […] The human small cell lung carcinoma H69 cell line and its multidrug-resistant MRP1-overexpressing isogenic H69AR cell line were purchased from ATCC. […] H69 cells grow as large multi-cell aggregates, making it difficult to accurately count cell numbers. […] The IL-6 dependent bortezomib-resistant ANBL6-BR cell line was further supplemented with 1 ng/ml of IL-6. The MCF10AT1 and MCF10CA1a cell lines are isogenic to the MCF10A cell line, and obtained from Dr. Valerie Weaver at the Center for Bioengineering and Tissue Regeneration, UCSF, CA, USA. MCF10AT1 is a premalignant cell line generated by transforming MCF10A with c-Ha-Ras; and MCF10CA1a was isolated by selecting malignant cells after MCF10AT1 cells were engrafted into mice (Liu & Lin 2004; […] et al. 2009). […] The drug-resistant cells were cultured in the absence of drug for at least one passage before carrying out experiments. All cells were maintained in a humidified incubator at 37° C. […] Cell line authentication was performed using short tandem repeat (STR) profiling. For (anti)proliferation assays, 4,000-5,000 cells/well of the 96-well clustered dish were incubated for 16 hours, as described previously (Hu et al., 2008; Skehan et al., 1990). […] Some wells were treated with 100 μl of 10% trichloroacetic acid (TCA) as a negative control and sham (medium with dimethyl sulfoxide; DMSO) treated cells were used as a positive control. […] TCA was removed and cells were washed with cold tap water, and plate was air-dried, followed by addition of 50 μl of 0.4% SRB staining solution to each well. After 30 minutes incubation, SRB staining solution was removed. Cells were washed with 1% acetic acid solution, and then washed with tap water to remove unbound staining solution, followed by air-drying. 200 μl of 10 mM (pH10.5) trizma base buffer was added to each well to solubilise macromolecules. […] Cell growth (inhibition) was calculated by the following formula: % cells proliferation=[(AT-CT)/(ST-CT)]×100 wherein AT=absorbance of treated cells, CT=absorbance of negative control cells, and ST=absorbance of sham treated cells. […] The combinational index (CI) was calculated as described previously (Chou 2006). […] CI values were determined from four independent experiments.

HeLa cells = experiment: Western blotting (PARP cleavage, apoptosis); assay type: cell-based; settings: by 24-hour post-treatment
Experimental: Exponentially growing cells were collected by centrifugation at 1,100 rpm (Allegra™ X-12 centrifuge, Beckman Coulter) at scheduled time points post-treatment. Cells were washed three times with PBS by centrifugation under the same conditions, followed by cell lysis for 10-15 minutes on ice in 100 μl Lysis buffer (150 mM NaCl, 5 mM EDTA, 1% triton X-100, 10 mM tris pH 7.4, 1 mM PMSF, 5 mM EDTA and 5 mM protease inhibitor). Cell extracts were centrifuged at 11,000 rpm (Allegra™ X-12 centrifuge, Beckman Coulter) for 10 minutes at 4° C. Supernatant was collected and the protein concentration was measured using a BCA assay kit according to the supplier's specifications (Thermo Fisher Scientific, Waltham, Mass.). Cell lysates were then diluted with 2× Iaemmli sample buffer and boiled for 5 minutes at 95-100° C. 30-40 μg protein was loaded on 8% or 10% polyacrylamide gel and resolved by electrophoresis. Proteins were then electronically transferred to a PVDF membrane for 75 minutes at 24 volts, followed by “blocking” with 5% skim milk for 1 hour. Proteins were incubated with primary antibody overnight at 4° C. in 0.1% TBST buffer containing 5% skim milk. The membrane was washed three times with 0.1% TBST buffer and incubated for 1 hour with secondary antibody in TBST buffer containing 5% skim milk. […]

[1] = Liver toxicity by AST and ALT; assay type: in vivo, mice; settings: serum
Experimental: For paclitaxel treatments, 40 mg/ml stock solution of paclitaxel (Sigma, MO) was prepared in DMSO. […] Alanine transaminase (ALT, SUP6001-c)/Aspartate transaminase (AST, SUP6002-c) color endpoint assay kits were purchased from ID Labs Biotechnology (London, Ontario, Canada). Elevation of ALT and AST levels in serum samples was used as an indicator of liver damage/injury. Animals were monitored for food and water consumption every day, and their body weights and tumor volumes were measured twice per week. […] Blood samples were collected via cardiac puncture and processed further for ALT and AST measurements. The animals were then immediately euthanized by carbon dioxide. […] The paraffin-embedded blocks were then cut into 4-5 μm thick sections. Each section of tumors and organs was stained with hematoxylin and eosin (H&E). Changes in body weight, hemoglobin (Hb) and the amount and ratio of alanine transaminase (ALT)/aspartate transaminase (AST) were used to measure toxic effects. In addition, vital organs (liver, spleen, kidney and lung) were analyzed by […] after they were harvested, fixed, processed, paraffin-embedded, sectioned, and stained as described above.

Liver mitotic cells = assay type: in vivo, mice; settings: 30 days; 10 mg paclitaxel, 30 mg CTR, or paclitaxel (5 mg) + CTR (15 mg)
Experimental: ATH490 athymic mice were treated as indicated in the listed concentrations for 30 days (FIG. 45A), and then the liver cell proliferation analyzed by examining the number of mitotic cells (white arrows in FIG. 45A). “Tax” denotes paclitaxel. The numbers in the brackets in (FIG. 45B) are mg/kg body weight. […] However, this small increase is considered normal as the AST/ALT ratio is <3 (Table 14).

[2] = Paclitaxel 10 mg/kg, CTR 30 mg/kg, or Paclitaxel (5) + CTR (15)

SMILES | killing of MDA-MB231TaxR compared with parental MDA-MB231 (MDA-MB231TaxR) | Cell survival rate (MDA-MB231TaxR; single agent 23.4 nM) | concentration at which many cells underwent apoptosis (cleavage of PARP) (HeLa cells) [nM] | Cell survival rate (MDA-MB231TaxR; single agent 0.3 μM) | ALT (IU/L) ([1]; CTR 20 mg/kg) | AST (IU/L) ([1]; CTR 20 mg/kg) | ALT (IU/L) [1, 2] [IU/L] | AST (IU/L) [1, 2] [IU/L] | mitotic index in the liver (Liver mitotic cells) | Cell survival rate (MDA-MB231TaxR; single agent 18.75 nM) | Cell survival rate (MDA-MB231TaxR; single agent 37.5 nM) | Cell survival rate (MDA-MB231TaxR; single agent 75.0 nM) | Cell survival rate (MDA-MB231TaxR; single agent 150 nM) | Cell survival rate (MDA-MB231TaxR; single agent 300 nM)
CCOc1ccccc1C(=O)/C=C/c1cc2ccccc2[nH]c1=O [CTR-32, (E)-3-(3-(2-ethoxyphenyl)-3-oxoprop-1-enyl)quinolin-2(1H)-one] | to the same degree as the parental MDA-MB231 cells | 53.07 ± 6.50 | ≥ 30 |  |  |  |  |  |  |  |  |  |  | 
COc1ccc2[nH]c(=O)c(/C=C/C(=O)c3ccccc3OC)cc2c1 [CTR-20, (E)-6-Methoxy-3-(3-(2-methoxyphenyl)-3-oxoprop-1-enyl) quinolin-2(1H)-one] | to the same degree as the parental MDA-MB231 cells |  |  | 63.7 ± 2.52 | 56.77 ± 5.34 | 119.19 ± 4.03 | 50.50 ± 9.96 | 118.22 ± 17.00 | small increases in the mitotic index |  |  |  |  | 
CC(=O)O[C@H]1C(=O)[C@@]2(C)[C@H]([C@H](OC(=O)c3ccccc3)[C@]3(O)C[C@H](OC(=O)[C@H](O)[C@@H](NC(=O)c4ccccc4)c4ccccc4)C(C)=C1C3(C)C)[C@]1(OC(C)=O)CO[C@@H]1C[C@@H]2O [Paclitaxel, reference compound] |  |  |  |  |  |  | 52.02 ± 2.59 | 111.14 ± 13.42 | small increases in the mitotic index | 95.84 ± 1.86 | 90.28 ± 3.58 | 90.98 ± 4.49 | 82.41 ± 5.00 | 57.75 ± 3.78
COc1ccccc1C(=O)/C=C/c1cc2cccc(OC)c2[nH]c1=O [CTR-21, (E)-8-methoxy-3-(3-(2-methoxyphenyl)-3-oxoprop-1-enyl) quinolin-2(1H)-one] | to the same degree as the parental MDA-MB231 cells | 52.10 ± 3.71 | ≥ 15 |  |  |  |  |  |  |  |  |  |  | 
COc1ccccc1C(=O)/C=C/c1cc2ccccc2[nH]c1=O [CTR-17, (E)-3-(3-(2-Methoxyphenyl)-3-oxoprop-1-enyl)quinolin-2(1H)-one] | to the same degree as the parental MDA-MB231 cells |  |  |  | 63.59 ± 9.73 | 101.00 ± 10.19 | 64.67 ± 5.26 | 114.13 ± 6.36 | small increases in the mitotic index |  |  |  |  | 
